Source: patent US5807691A, “Polypeptides having serotonin receptor activity (5HT5A), nucleic acids coding for these polypeptides and uses thereof” (Institut National De La Sante et Da La Recherche Medicale, priority 1992, dated 1998)
Like-named read-outs stand apart in the source and are kept apart here.

Key:
5HT5a receptor [1] = experiment: Saturation binding of radiolabelled serotonin ligands to membranes of Cos-7 cells expressing the 5HT5a receptor; parameters: species or system rat; details: 10 minutes at 37° C., 50 mM Tris-HCl pH 7.4
Experimental: The specific binding is shown.
(§1) Radioactivity was measured with a γ counter.

5HT5a receptor [2] = experiment: [^125 I]-LSD binding to membranes of NIH-3T3 clones NS1 and NS4 expressing the 5HT5a receptor; parameters: species or system rat
Experimental: as §1
For this purpose, the recombinant expression vector described in 3. above was used. […] The transformant clones were selected in the presence of 0.5 mg of G418. The clones isolated were then amplified, and the total RNAs of these clones were prepared and analysed by Northern blotting for the expression of 5HT5a mRNA.
The membranes of the cells of these clones were then prepared and tested under the conditions described above for their capacity to bind some labelled serotonin ligands, and to determine the affinity of the receptors for the said ligands.
Different displacement experiments were then carried out (Table 1).

5HT5a receptor [3] = target: 5HT5a receptor
5HT1D [4] = details: cited from earlier work
5HT1D [5] = details: cited from earlier work; remark: listed apart in the source
5HT5a receptor [6] = tested on: 5HT5a receptor; remark: listed apart in the source

Compound	pKi 5HT1D (Calf caudate) (5HT1D [4]; Calf caudate)	pKi 5HT1D (rat cortex) (5HT1D [5])	also measured
CCN(CC)C(=O)[C@@H]1C=C2c3cccc4[nH]c([125I])c(c34)C[C@H]2N(C)C1 [[^125 I]-LSD]	–	–	binding of radiolabelled ligand to membranes of transfected Cos-7 cells (5HT5a receptor [1]): possesses a saturable binding site; Kd (5HT5a receptor [1]; Cos-7 membranes, non-specific binding with 10 μM 5HT, FIG. 2): 0.00034 µM; binding sites for [^125 I]-LSD on membranes of clones NS1 and NS4 (5HT5a receptor [2]): high-affinity binding sites
CCCN(CCC)C1CCc2cccc(O)c2C1 (stereo not drawn) [[^3 H]-8-OH-DPAT]	–	–	binding of radiolabelled ligand to membranes of transfected Cos-7 cells (5HT5a receptor [1]): do not bind
NCCc1ccc(O)c(O)c1 [Dopamine]	–	–	Ki (5HT5a receptor [3]): 79.4 µM
CNS(=O)(=O)Cc1ccc2[nH]cc(CCN(C)C)c2c1 [Sumatriptan]	7.5	–	–
COC(=O)[C@@H]1[C@H]2C[C@H]3c4[nH]c5ccccc5c4CCN3C[C@@H]2CC[C@@H]1O [Yohimbine]	–	–	pKi 5HT1D (Calf caudate) (5HT1D [4]): 7.1
FC(F)(F)c1cccc(N2CCNCC2)c1 [TFMPP]	6.2	6.6	–
O=C(c1ccc(F)cc1)C1CCN(CCn2c(=O)[nH]c3ccccc3c2=O)CC1 [Ketanserin]	5.7	< 5	Ki (5HT5a receptor [3]): 15.8 µM
O=C(CCCN1CCC2(CC1)C(=O)NCN2c1ccccc1)c1ccc(F)cc1 [[^3 H]-spiperone]	–	–	binding of radiolabelled ligand to membranes of transfected Cos-7 cells (5HT5a receptor [1]): do not bind
CN(C)CCc1c[nH]c2ccc(O)cc12 [Bufotenine]	8.1	–	–
COc1ccc2[nH]cc(C3=CCNCC3)c2c1 [RU24969]	7.3	–	–
CC(C)NCC(O)COc1cccc2[nH]ccc12 (racemic) [(±)Pindolol]	5.2	< 5	–
NC[C@H](O)c1ccc(O)c(O)c1 [(-)Norepinephrine]	–	–	Ki (5HT5a receptor [3]): 1580 µM
NCCc1c[nH]c2ccc(C(N)=O)cc12 [5-CT]	8.6	8.6	–
CN1C[C@H](C(=O)N[C@]2(C)O[C@@]3(O)[C@@H]4CCCN4C(=O)[C@H](Cc4ccccc4)N3C2=O)C=C2c3cccc4[nH]cc(c34)C[C@H]21 [Ergotamine]	–	–	pKi 5HT1D (Calf caudate) (5HT1D [4]): 7.8; pKi 5HT5 (Cos-7) (5HT5a receptor [6]): 8.4
CC(C)(C)NCC(O)COc1cccc2[nH]c(C#N)c([125I])c12 (stereo not drawn) [[^125 I]-cyanopindolol]	–	–	binding of radiolabelled ligand to membranes of transfected Cos-7 cells (5HT5a receptor [1]): do not bind
CCCN(CCC)C1CCc2cccc(O)c2C1 (stereo not drawn) [8-OH-DPAT]	5.9	6.6	–
NCCc1c[nH]c2ccc(O)cc12 [5-HT, 5-hydroxytryptamine]	8.4	8.7	–
